According to patent US20250243464A1, “ENHANCED DIFFERENTIATION OF PANCREATIC ISLET CELLS” (Vertex Pharmaceuticals Incorporated, priority 2022, published 2025):

What was measured:
EZH2 = EZH2 (Homo sapiens, UniProt Q15910); settings: cited from earlier work
viable cell density = assay: Cell viability assays / yield of Protocol 2 differentiation with amino acid supplementation in S1; format: cell-based
Protocol: (§1) At S5C, samples of the cells that were supplemented with different amino acids during S1C were collected and stained with NKX6.1 and ISL1 and analyzed using flow cytometry. […] To determine how amino acid supplementation affected yield, cell viability assays were performed.
(§2) In the next set of experiments, different combinations of amino acids were tested for their effects on yield and β-cell composition. […] The control group only received treatment with Protocol 2. […] The amino acid supplemented S1 base media were utilized for each S1 feed in a Protocol 2 differentiation at 0.3 L scale, alongside a control. At S5C, samples of cells were collected, stained with NKX6.1 and ISL1 and analyzed by flow cytometry. […] To determine how amino acid supplementation affected yield, cell viability assays were performed.

PDX1+/NKX6.1− cells = assay: Flow cytometry for NKX6.1 and PDX1 at S3C after amino acid supplementation in S1; format: cell-based; settings: supplementation in S1 to final 200 μM aspartate, 300 μM glycine, 585 μM serine
Protocol: (§3) To determine whether supplementation of amino acids identified in Example 1 altered cellular differentiation outcomes, the following experiments were conducted. […] A control condition following Protocol 2 only was also performed.
At S3C, samples of the cells that were supplemented with different amino acids during S1C were collected and stained with NKX6.1 and PDX1 and analyzed using flow cytometry. […] In the control, 89.3% of cells were in PDX1+/NKX6.1-, while in aspartate supplemented samples 90% of cells were PDX1+/NKX6.1-(FIG. 6B).

Sox17+/Oct4− cells = assay: Flow cytometry for Sox17 and Oct4 at S1C after amino acid supplementation in S1 of Protocol 2; format: cell-based; settings: supplementation in S1 to final 200 μM aspartate, 300 μM glycine, 585 μM serine, Protocol 2, 0.3 L scale
Protocol: as §3
The amino acid supplemented S1 base media were utilized for each S1 feed in a Protocol 2 differentiation at 0.3 L scale, alongside a control. At S1C, samples of cells were collected, stained with Sox17 and Oct4 and analyzed by flow cytometry.

[1] = system: ISL1+/NKX6.1+ (β-like) cells and ISL1+/NKX6.1− (α-like) cells; assay: Flow cytometry for NKX6.1 and ISL1 at S5C after amino acid supplementation in S1; format: cell-based; settings: supplementation in Stage 1; for amount of SC-β-cells / SC-β-cell composition versus control: Stage 5 (S5C)
Protocol: as §3, §1, §2

PDX1+/NKX6.1+ cells = assay: Flow cytometry for NKX6.1 and PDX1 at S4C after amino acid supplementation in S1; format: cell-based; settings: supplementation in S1 to final 200 μM aspartate, 300 μM glycine, 585 μM serine
Protocol: as §3
At S4C, samples of the cells that were supplemented with different amino acids during the S1C step were collected and stained with NKX6.1 and PDX1 and analyzed using flow cytometry.

Sequence of EZH2 (Q15910 whole entry, species assumed): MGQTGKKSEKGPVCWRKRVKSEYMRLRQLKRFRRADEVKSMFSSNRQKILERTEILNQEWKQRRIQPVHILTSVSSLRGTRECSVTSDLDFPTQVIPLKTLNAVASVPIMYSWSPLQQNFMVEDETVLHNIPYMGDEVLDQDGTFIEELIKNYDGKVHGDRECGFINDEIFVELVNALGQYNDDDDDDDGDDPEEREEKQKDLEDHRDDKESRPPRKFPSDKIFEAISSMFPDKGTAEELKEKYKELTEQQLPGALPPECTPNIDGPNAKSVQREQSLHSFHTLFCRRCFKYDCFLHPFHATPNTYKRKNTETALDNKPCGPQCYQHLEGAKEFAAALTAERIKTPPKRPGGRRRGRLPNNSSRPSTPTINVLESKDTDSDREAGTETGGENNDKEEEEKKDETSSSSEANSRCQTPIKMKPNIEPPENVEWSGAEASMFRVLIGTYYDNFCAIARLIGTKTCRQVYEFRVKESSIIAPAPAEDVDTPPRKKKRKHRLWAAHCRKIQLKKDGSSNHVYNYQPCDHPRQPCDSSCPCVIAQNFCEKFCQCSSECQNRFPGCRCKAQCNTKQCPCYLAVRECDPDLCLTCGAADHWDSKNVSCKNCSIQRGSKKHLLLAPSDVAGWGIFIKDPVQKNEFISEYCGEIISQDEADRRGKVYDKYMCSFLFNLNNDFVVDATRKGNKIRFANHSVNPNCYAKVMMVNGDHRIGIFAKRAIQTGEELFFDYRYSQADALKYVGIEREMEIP
Sequence of EZH2 (O75530 whole entry partner, species assumed): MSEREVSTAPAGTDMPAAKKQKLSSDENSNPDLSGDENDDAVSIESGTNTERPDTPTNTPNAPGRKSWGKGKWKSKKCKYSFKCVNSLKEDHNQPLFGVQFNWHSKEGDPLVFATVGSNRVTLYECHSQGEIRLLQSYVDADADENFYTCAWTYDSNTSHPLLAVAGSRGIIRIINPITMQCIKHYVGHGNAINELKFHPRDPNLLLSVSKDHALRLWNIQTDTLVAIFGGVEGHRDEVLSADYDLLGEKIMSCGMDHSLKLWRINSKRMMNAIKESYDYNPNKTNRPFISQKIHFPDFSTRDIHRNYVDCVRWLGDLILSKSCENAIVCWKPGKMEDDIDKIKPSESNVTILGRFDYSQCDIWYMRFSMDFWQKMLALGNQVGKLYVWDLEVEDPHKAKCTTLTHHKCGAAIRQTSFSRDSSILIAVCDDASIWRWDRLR
Sequence of EZH2 (Q15022 whole entry partner, species assumed): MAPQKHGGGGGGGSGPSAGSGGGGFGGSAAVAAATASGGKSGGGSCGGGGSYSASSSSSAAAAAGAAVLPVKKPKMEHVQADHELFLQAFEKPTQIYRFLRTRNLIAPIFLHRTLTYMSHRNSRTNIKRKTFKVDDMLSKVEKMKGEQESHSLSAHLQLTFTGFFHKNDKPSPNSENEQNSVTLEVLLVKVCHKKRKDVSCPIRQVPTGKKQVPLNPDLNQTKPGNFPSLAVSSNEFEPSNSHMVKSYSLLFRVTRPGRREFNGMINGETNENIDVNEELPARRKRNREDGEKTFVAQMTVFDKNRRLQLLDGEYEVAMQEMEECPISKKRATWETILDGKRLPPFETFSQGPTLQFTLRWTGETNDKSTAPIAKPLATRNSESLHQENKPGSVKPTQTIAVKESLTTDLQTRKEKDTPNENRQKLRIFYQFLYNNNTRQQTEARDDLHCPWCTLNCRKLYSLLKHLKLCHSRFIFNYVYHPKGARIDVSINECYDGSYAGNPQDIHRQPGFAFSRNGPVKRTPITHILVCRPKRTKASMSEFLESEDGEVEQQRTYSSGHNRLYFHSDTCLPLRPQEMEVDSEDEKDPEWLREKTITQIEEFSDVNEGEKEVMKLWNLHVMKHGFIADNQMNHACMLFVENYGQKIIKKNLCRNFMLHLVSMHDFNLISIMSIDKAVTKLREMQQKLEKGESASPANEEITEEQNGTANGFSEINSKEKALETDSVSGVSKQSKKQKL

Compound | selectivity over EZH1 (EZH2; EZH2 versus EZH1) [fold] | yield (viable cells at harvest) relative to the control (viable cell density) | % of PDX1+/NKX6.1− cells (PDX1+/NKX6.1− cells) [%] | % of Sox17+/Oct3/4− cells (Sox17+/Oct4− cells) [%] | α-like cell development ([1]; S5C) | % of PDX1+/NKX6.1+ cells (PDX1+/NKX6.1+ cells) [%] | amount of SC-β-cells / SC-β-cell composition versus control [1] | selectivity compared with GSK126 (EZH2)
CC[C@H](C)n1cc(C)c2c(C(=O)NCc3c(C)cc(C)[nH]c3=O)cc(-c3ccc(N4CCNCC4)nc3)cc21 [GSK126] | 150 |  |  |  |  |  |  | 
N[C@@H](CO)C(=O)O [Protocol 2 + Serine, serine] |  | decreased yield | 89.1 | 72.9 | promoted α-like cell development | 72.1 |  | 
glycine [Protocol 2 + Glycine] |  | decreased yield | 89.1 | 81.1 |  | 77.2 | increased | 
aspartate [Protocol 2 + Aspartate] |  |  | 90 | 75.6 |  | 77.8 | increased | 
CCCc1cc(C)[nH]c(=O)c1CNC(=O)c1cc(-c2ccc(N3CCN(C(C)C)CC3)nc2)cc2c1cnn2C(C)C [UNC1999] |  |  |  |  |  |  |  | less selective
